Literature values as cited in patent publication US20210000980A1, “METHOD AND COMPOSITION FOR THE DETECTION OF ARTHROPODS” (ARKE' S.r.l., priority 2018, published 2021).

Tested on: lice
Details: 10% formic acid solution in water

Which lice removed does the source give for `O=CO` [formic acid] here?
Its lice removed is ≤ 94%.
